The values below come from patent US12398117B2, “Heteroarylamidopyridinol derivative and pharmaceutical composition comprising same as active ingredient for prevention or treatment of autoimmune disease” (INNOVO THERAPEUTICS INC., priority 2019, dated 2025).

The subject of assay [1] is adhesion of intestinal epithelial cells (HT-29) and monocytic cells (U937) induced by TNF-α. In words: Inhibition of TNF-α-induced adhesion of monocytes and intestinal epithelial cells. The class given is cell-based, human. Conditions: Homo sapiens, test drug 1 μM; TNF-α 10 ng/mL; HT-29/U937; read-out: Inhibitory activity (%). Here is the method: HT-29 human colon cancer-derived epithelial cells and U937 human-derived monocytes were cultured in RPMI 1640 medium containing 10% FBS and 1% penicillin/streptomycin (PS) in a 37° C., 5% CO2 incubator. When the cells grew more than 80% of the bottom area of the culture flask, they were passaged at a ratio of 1:3 and used in this experiment. HT-29 cells were cultured in a 24-well plate at the density of 2×10^5 cells/cm^2, and the test drug was pretreated in a medium containing 1% FBS and 1% PS for 1 hour. Thereafter, 10 μg/mL of BCECF-AM was treated thereto and reacted at 37° C. for 30 minutes. U937 cells loaded with BCECF and TNF-α (10 ng/mL) were reacted with HT-29 cells previously treated with the test drug at 37° C. for 3 hours. Upon completion of the reaction, the medium was removed, and the culture flask was washed twice with PBS to remove non-adherent U937 cells. In the next step, the cells were lysed by treating with 0.1% Triton X-100 (0.1 M Tris) and reacted at room temperature for 30 minutes. Then, fluorescence was measured and quantified using a fluostar optima microplate reader (BMG Labtechnologies, Germany) (Carvalho et al., 1996; Thapa et al., 2008).

The test system of assay [2] is adhesion of intestinal epithelial cells (HT-29) and monocytic cells (U937) induced by IL-6. In words: Inhibition of IL-6-induced adhesion of monocytes and intestinal epithelial cells. The class given is cell-based, human. To be noted: Homo sapiens, 3 h; test drug 1 μM; IL-6 10 ng/mL; HT-29/U937; read-out: inhibitory activity (%). Here is the method: The inhibitory activity test for intestinal epithelial cell-monocyte adhesion by IL-6 was performed using the same method as in the case of TNF-α. HT-29 cells were cultured in a 24-well plate at the density of 2×10^5 cells/cm^2, and the test drug was pretreated in a medium containing 1% FBS and 1% PS for 1 hour. Thereafter, 10 μg/mL of BCECF-AM was treated thereto and reacted at 37° C. for 30 minutes. U937 cells loaded with BCECF and IL-6 (10 ng/mL) were reacted with HT-29 cells previously treated with the test drug at 37° C. for 3 hours. Upon completion of the reaction, the medium was removed, and the culture flask was washed twice with PBS to remove non-adherent U937 cells. In the next step, the cells were lysed by treating with 0.1% Triton X-100 (0.1 M Tris) and reacted at room temperature for 30 minutes. Then, fluorescence was measured and quantified using a fluostar optima microplate reader (BMG Labtechnologies, Germany).

Some results are limits rather than exact numbers.

On to `Cc1nc(NC(=O)c2cc3cc(Cl)ccc3o2)c(C)c(C)c1O` [Compound X-16, 5-chloro-N-(5-hydroxy-3,4,6-trimethylpyridin-2-yl)benzofuran-2-carboxamide], for which the inhibition at 1 µM in assay [1] was 25.1%; in assay [2], 15.1%.
For `Cc1nc(NC(=O)c2cc3cc(Br)ccc3o2)c(C)c(C)c1O` [Compound X-17, 5-bromo-N-(5-hydroxy-3,4,6-trimethylpyridin-2-yl)benzofuran-2-carboxamide] the same measures were 8.5% and 3.6%.
For `COc1cccc2cc(C(=O)Nc3nc(C)c(O)c(C)c3C)oc12` [Compound X-18, N-(5-hydroxy-3,4,6-trimethylpyridin-2-yl)-7-methoxybenzofuran-2-carboxamide], in that order: at least 50% and 48.8%.
For `Cc1nc(NC(=O)c2oc3ccccc3c2C)c(C)c(C)c1O` [Compound X-19, N-(5-hydroxy-3,4,6-trimethylpyridin-2-yl)-3-methylbenzofuran-2-carboxamide] the same measures were 25.1% and 18.7%.
In the case of `Cc1nc(NC(=O)c2cc3ccccc3s2)c(C)c(C)c1O` [Compound X-20, N-(5-hydroxy-3,4,6-trimethylpyridin-2-yl)benzo[b]thiophene-2-carboxamide], the inhibition at 1 µM stood at 16.5% in assay [1] and 27% in assay [2].
For `Cc1nc(NC(=O)c2sc3ccccc3c2Cl)c(C)c(C)c1O` [Compound X-21, 3-chloro-N-(5-hydroxy-3,4,6-trimethylpyridin-2-yl)benzo[b]thiophene-2-carboxamide] the same measures were 13.4% and 11.4%.
Regarding `Cc1nc(NC(=O)c2sc3ccccc3c2Br)c(C)c(C)c1O` [Compound X-22, 3-bromo-N-(5-hydroxy-3,4,6-trimethylpyridin-2-yl)benzo[b]thiophene-2-carboxamide], the inhibition at 1 µM in assay [1] worked out at 26.8%; in assay [2], 19.7%.
Take `Cc1ccc2c(Cl)c(C(=O)Nc3nc(C)c(O)c(C)c3C)sc2c1` [Compound X-23, 3-chloro-N-(5-hydroxy-3,4,6-trimethylpyridin-2-yl)-6-methylbenzo[b]thiophene-2-carboxamide]: the values for the inhibition at 1 µM in assay [1] and in assay [2] were 9.1% and 8.7%, respectively.
Turning to `Cc1nc(NC(=O)c2sc3cc(Cl)ccc3c2Cl)c(C)c(C)c1O` [Compound X-25, 3,6-dichloro-N-(5-hydroxy-3,4,6-trimethylpyridin-2-yl)benzo[b]thiophene-2-carboxamide], the inhibition at 1 µM in assay [1] turned out to be 19.5%; in assay [2] it was 9%.
For `COc1ccc2c(Cl)c(C(=O)Nc3nc(C)c(O)c(C)c3C)sc2c1` [Compound X-26, 3-chloro-N-(5-hydroxy-3,4,6-trimethylpyridin-2-yl)-6-methoxybenzo[b]thiophene-2-carboxamide], in that order: 45.1% and 38.4%.
For `COc1c(C)nc(NC(=O)c2sc3cc(F)ccc3c2Cl)c(C)c1C` [XI-01, 3-chloro-6-fluoro-N-(5-methoxy-3,4,6-trimethylpyridin-2-yl)benzo[b]thiophene-2-carboxamide], in that order: 9.3% and 4.7%.
For `COc1c(C)nc(N(C)C(=O)c2sc3cc(F)ccc3c2Cl)c(C)c1C` [XI-02, 3-chloro-6-fluoro-N-(5-methoxy-3,4,6-trimethylpyridin-2-yl)-N-methylbenzo[b]thiophene-2-carboxamide] the same measures were 18.5% and 10.9%.
As for `Cc1nc(NC(=O)c2sc3cc(F)ccc3c2Cl)c(C)c(C)c1OCC(=O)NC(C)C` [XI-03, 3-chloro-6-fluoro-N-(5-(2-(isopropylamino)-2-oxoethoxy)-3,4,6-trimethylpyridin-2-yl)benzo[b]thiophene-2-carboxamide], the inhibition at 1 µM is at least 50% in assay [1] and 49.9% in assay [2].
For `Cc1nc(NC(=O)c2sc3cc(F)ccc3c2Cl)c(C)c(C)c1OCC(=O)NC1CC1` [XI-04, 3-chloro-N-(5-(2-(cyclopropylamino)-2-oxoethoxy)-3,4,6-trimethylpyridin-2-yl)-6-fluorobenzo[b]thiophene-2-carboxamide], in that order: 13.9% and 6.5%.
For `Cc1nc(NC(=O)c2sc3cc(F)ccc3c2Cl)c(C)c(C)c1OCC(=O)NC1CCCCC1` [XI-05, 3-chloro-N-(5-(2-(cyclohexylamino)-2-oxoethoxy)-3,4,6-trimethylpyridin-2-yl)-6-fluorobenzo[b]thiophene-2-carboxamide], in that order: 25.5% and 14.5%.
Turning to `Cc1nc(NC(=O)c2sc3cc(F)ccc3c2Cl)c(C)c(C)c1OCC(=O)NCc1ccccc1` [XI-06, N-(5-(2-(benzylamino)-2-oxoethoxy)-3,4,6-trimethylpyridin-2-yl)-3-chloro-6-fluorobenzo[b]thiophene-2-carboxamide], the values for the inhibition at 1 µM in assay [1] and in assay [2] were at least 50% and 54.1%, respectively.
For `Cc1nc(NC(=O)c2sc3cc(F)ccc3c2Cl)c(C)c(C)c1OC(=O)c1ccccc1` [XI-08, 6-(3-chloro-6-fluorobenzo[b]thiophene-2-carboxamido)-2,4,5-trimethylpyridin-3-yl benzoate], in that order: 7.7% and 6.8%.
For `Cc1nc(NC(=O)c2sc3cc(F)ccc3c2Cl)c(C)c(C)c1OC(=O)c1ccc(F)cc1` [XI-09, 6-(3-chloro-6-fluorobenzo[b]thiophene-2-carboxamido)-2,4,5-trimethylpyridin-3-yl 4-fluorobenzoate] the same measures were 3.4% and 21.2%.
For `COc1cccc(C(=O)Oc2c(C)nc(NC(=O)c3sc4cc(F)ccc4c3Cl)c(C)c2C)c1` [XI-10, 6-(3-chloro-6-fluorobenzo[b]thiophene-2-carboxamido)-2,4,5-trimethylpyridin-3-yl 3-methoxybenzoate] the same measures were 46.5% and 13.1%.
For the compound `COc1ccc(C(=O)Oc2c(C)nc(NC(=O)c3sc4cc(F)ccc4c3Cl)c(C)c2C)cc1` [XI-11, 6-(3-chloro-6-fluorobenzo[b]thiophene-2-carboxamido)-2,4,5-trimethylpyridin-3-yl 4-methoxybenzoate], the inhibition at 1 µM came out at 77.2% in assay [1] and 67% in assay [2].
For `Cc1nc(NC(=O)c2sc3cc(F)ccc3c2Cl)c(C)c(C)c1OC(=O)c1ccc(F)cn1` [XI-12, 6-(3-chloro-6-fluorobenzo[b]thiophene-2-carboxamido)-2,4,5-trimethylpyridin-3-yl 5-fluoropicolinate], in that order: 31.9% and 18%.
As to `Cc1nc(NC(=O)c2sc3cc(F)ccc3c2Cl)c(C)c(C)c1OC(=O)c1ccc(F)nc1` [XI-13, 6-(3-chloro-6-fluorobenzo[b]thiophene-2-carboxamido)-2,4,5-trimethylpyridin-3-yl 6-fluoronicotinate], the inhibition at 1 µM in assay [1] came to 20.7%; in assay [2], 15.2%.
For `Cc1nc(NC(=O)c2sc3cc(F)ccc3c2Cl)c(C)c(C)c1OC(=O)c1ccc(Cl)cn1` [XI-14, 6-(3-chloro-6-fluorobenzo[b]thiophene-2-carboxamido)-2,4,5-trimethylpyridin-3-yl 5-chloropicolinate] the same measures were 38.1% and 26.8%.
For `Cc1nc(NC(=O)c2sc3cc(F)ccc3c2Cl)c(C)c(C)c1OC(=O)C12CC3CC(CC(C3)C1)C2` [XI-16, 6-(3-chloro-6-fluorobenzo[b]thiophene-2-carboxamido)-2,4,5-trimethylpyridin-3-yl (3r,5r,7r)-adamantane-1-carboxylate] the same measures were 29.2% and 20.3%.
